Legend:
[1] = target: T1, capsaicin receptor (rat Gasser ganglia) (Rattus norvegicus, UniProt O35433); assay: biochemical; format: binding; details: rat Gasser ganglia
T1 construct: from tissue; host or cells: Gasser ganglia of female Sprague-Dawley rats
Method: Membrane preparations are obtained from the DRG and Gasser ganglia of female Sprague-Dawley rats (250-300 g); animals are sacrificed by decapitation under ether anesthesia, the ganglia removed and collected into ice-cold disrupting buffer (5 mM KCl, 5.8 mM NaCl, 2 mM MgCl2, 12 mM glucose, 137 mM sucrose, 10 mM HEPES, 5 mM DTT, 2 mM EGTA, pH 7.4). After homogenization with the aid of a Polytron tissue homogenizer, samples are filtered over surgical gauze and then washed twice with the same buffer and stored at -70° C. Particulate fractions are obtained from other rat neural tissues (cerebellum, spinal cord, preoptic region, striatum, substantia nigra) and from DRG of pigs (Mt. Airy Locker Co., Mt. Airy, MD), sheep, cows (kindly provided by Dr. Solomon, USDA, Beltsville, MD), and chickens (Truslow Farms, Chesterton, MD) by a similar procedure.
The binding assays are carried out in a volume of 250 ul, containing assay buffer (same as the disrupting buffer but omitting DTT and EGTA and including 0.75 mM CaCl2), 26-30 ug of membrane protein and 0.25 mg/ml bovine serum albumin. […] Tubes are kept on ice while the additions are made. The assay mixture is incubated for 10 min at 37° C.; it is then cooled on ice. 150 ul of the mixture is pipetted onto Whatman GF/C or GF/F glass fiber filters presoaked with 10 mg/ml bovine serum albumin in 20 mM Tris-Cl (pH 7.4) and filtered immediately. An aliquot of 50 ul of the mixture is removed to determine total radioactivity. The filters are washed with 100 ml of ice-cold 20 mM Tris-Cl, pH 7 4, containing 0.1 mg/ml bovine serum albumin, and the bound radioactivity is determined by scintillation counting. Non-specific binding is determined in the presence of 100-1000 nM non-radioactive RTX.
Binding data from saturation experiments using increasing concentrations of hot ligand are analyzed using the collection of computer programs described by McPherson (McPherson, G.A., Analysis of radioligand binding experiments: a collection of computer programs for the IBM PC, J.Pharmacol.Methods, 14 (1985) 213-228).
Scatchard and Hill transformations are performed by the Equilibrium Binding Data Analysis program referred to as EBDA. Data are further analyzed by the curvilinear regression program LIGAND (Munson, R.J. and Rodbard, D., LIGAND: a versatile computerized approach for characterization of ligand-binding systems, Anal.Biochem, 107 (1980) 220-239).
RTX binding is also analyzed in the presence of a fixed, low (60 pM or 300 pM) concentration of [^3 H]RTX and increasing concentrations of non-radioactive RTX or other ligand. […] The Ki value for RTX is calculated from the relationship Ki =ID50 -L; the Ki values for other ligands are calculated from the general form of the equation (Cheng, Y.C. and Prusoff, W.H., Relation between the inhibition constant (Ki) and the concentration of inhibitor which causes 50 per cent inhibition (I50) of an enzymatic reaction, Biochem. Pharmacol., 22 (1973) 3099-3108) Ki =IC50 /(1+L/Kd) where L=concentration of labelled ligand and Kd =dissociation constant of radioactive ligand as determined in the saturation experiments using variable concentrations of hot ligand. Comparison of the quality of fit using single and multiple site competition models is performed by the LIGAND program.
Gasser ganglia represents the […] homolog of the dorsal root ganglia.

[2] = target: T2, capsaicin receptor (rat DRG) (Rattus norvegicus, UniProt O35433); assay: RTX binding in DRG preparations after in vivo RTX treatment
T2 construct: homotetramer
T2 sequence (O35433 whole entry): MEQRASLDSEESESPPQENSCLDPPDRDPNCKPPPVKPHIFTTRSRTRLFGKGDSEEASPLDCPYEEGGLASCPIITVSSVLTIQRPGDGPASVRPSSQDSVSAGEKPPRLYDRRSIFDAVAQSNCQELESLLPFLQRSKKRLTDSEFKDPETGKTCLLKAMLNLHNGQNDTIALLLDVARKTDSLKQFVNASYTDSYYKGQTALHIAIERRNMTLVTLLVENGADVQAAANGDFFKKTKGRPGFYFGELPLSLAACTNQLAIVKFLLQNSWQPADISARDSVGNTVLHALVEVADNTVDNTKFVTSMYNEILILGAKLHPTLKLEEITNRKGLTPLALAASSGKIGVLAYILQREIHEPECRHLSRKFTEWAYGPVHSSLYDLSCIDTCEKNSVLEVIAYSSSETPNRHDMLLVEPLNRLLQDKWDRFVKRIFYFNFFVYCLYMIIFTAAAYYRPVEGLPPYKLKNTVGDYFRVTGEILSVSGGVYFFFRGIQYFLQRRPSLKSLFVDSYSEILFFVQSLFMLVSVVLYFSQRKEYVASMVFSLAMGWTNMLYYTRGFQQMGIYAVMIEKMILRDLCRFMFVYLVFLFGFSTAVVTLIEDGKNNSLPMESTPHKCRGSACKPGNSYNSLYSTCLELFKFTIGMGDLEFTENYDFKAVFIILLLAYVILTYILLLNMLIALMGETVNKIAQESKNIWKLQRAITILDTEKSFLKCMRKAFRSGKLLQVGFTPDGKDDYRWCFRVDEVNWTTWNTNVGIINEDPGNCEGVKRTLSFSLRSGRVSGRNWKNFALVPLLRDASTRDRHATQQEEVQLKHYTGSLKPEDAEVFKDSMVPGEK

T1 sequence (O35433 whole entry): as above

`C=C(C)[C@]12C[C@@H](C)[C@@]34O[C@](Cc5ccccc5)(O[C@@H]1[C@@H]3C=C(COC(=O)Cc1ccc(O)c(OC)c1)C[C@]1(O)C(=O)C(C)=C[C@@H]41)O2` [[^3 H]RTX, [^3 H]resiniferatoxin] showed a Hill coefficient [1] of 0.87, a Bmax ([1]; 3 separate experiments, LIGAND) of 90 fmol/mg and a Kd ([1]; 3 separate experiments, LIGAND) of 0.13 nM. The “[^3H]RTX binding sites in neonatally treated animals” value [2] was “very significant loss”.
